Test results taken from PMC11320734 (ACS Pharmacology & Translational Science, 2024).
Values after ≈ are worked out from the molar mass of the structure shown. Read-outs that look alike come from different tables or passages of the source.

Legend:
[1] = Microsomal clearance; format: in vitro ADME; settings: human, human microsomes; Table 1
[2] = molecular target: T1, hCB1R (Homo sapiens, UniProt P21554); test: Competition binding assay with [3H]-CP55940, HEK cell membranes
Method: (§3) Competition and saturation binding assays were performed using the radiolabeled CB1R/CB2R agonist [^3H]-CP55940 (PerkinElmer).
(§4) Binding reactions were terminated by vacuum filtration onto 0.5% polyethylenimine presoaked GF/B filter plates (Packard) using a Filtermate cell harvester followed by 6 brief washes with 0.3 mL/well of ice-cold wash buffer. Wash buffer comprising 50 mmol L^–1 Tris- HCl, 5 mmol L^–1 MgCl2, 2.5 mmol L^–1 EDTA, and 0.5% fatty acid-free BSA, pH 7.4. Plates were dried at 50 °C for 1 h and liquid scintillation counting was used to determine levels of bound radiolabel. IC50 values and Hill slopes were determined with a 4-parameter logistic model using ActivityBase (ID Business Solution, Guilford, UK) and pKi values were determined using the Cheng–Prusoff equation as shown below: [drawing 1] where S indicates the concentration of the substrate and Km depicts the affinity constant of the substrate.

[3] = molecular target: human wild type CB2R (Homo sapiens, UniProt P34972); test: cAMP assay in CHO cells; format: cell-based; parameters: expressed in transfected cells; host or cells: CHO cells
Chain of human wild type CB2R (P34972 whole entry): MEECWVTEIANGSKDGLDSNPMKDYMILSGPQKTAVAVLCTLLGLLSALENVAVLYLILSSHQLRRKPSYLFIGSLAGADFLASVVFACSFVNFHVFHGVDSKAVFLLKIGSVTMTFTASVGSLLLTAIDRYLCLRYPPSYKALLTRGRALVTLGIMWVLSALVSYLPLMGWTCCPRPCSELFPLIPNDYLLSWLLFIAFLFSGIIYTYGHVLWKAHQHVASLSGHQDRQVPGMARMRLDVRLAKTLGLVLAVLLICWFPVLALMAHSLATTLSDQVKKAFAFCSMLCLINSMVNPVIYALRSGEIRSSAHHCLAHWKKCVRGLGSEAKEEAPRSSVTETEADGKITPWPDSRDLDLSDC

[4] = Octanol/water distribution coefficient (logD), CAMDIS assay; format: physicochemical; settings: octanol/water; read-out: logD
Method: (§1) For the determination of the octanol/water distribution coefficient (logD), the carrier-mediated distribution system (CAMDIS)-assay was used as described elsewhere.[38] Kinetic and thermodynamic solubilities were assessed using the lyophilization solubility assay (LYSA) and thermodynamic solubility assay (THESA), respectively. For the LYSA, the solubility of RNB- 61 in phosphate buffer at pH 6.5 from an evaporated 10 mM DMSO compound stock solution was measured. Two aliquots of the test compounds were dried and dissolved in phosphate buffer at pH 6.5. The solutions were then filtered and diluted (3 different dilution levels for each compound) before high throughput mass spectrometry (MS) analysis was performed in an Agilent RapidFire system. Each test compound was quantified using a 6-point calibration curve prepared with the same DMSO starting solution. For THESA, RNB-61 (8.6 mg per mL solvent/vehicle) was stirred in HPLC vials (9 × 12 × 32 mm, Waters) at 350 rpm for 15 h. The presence of solid particles was determined by microscopic analysis of 10 μL samples. If the active pharmacological ingredient (API) was completely dissolved, more solid API was added before stirring for another 15 h. This step was repeated for up to 96 h or until residual solid particles could be detected. Samples (0.5 mL) were transferred to Eppendorf Ultrafree filter tubes (Filter: PVDF 0.22 μm) and centrifuged at 14,500 rpm for 10 min. The filtrates were diluted in ethanol and analyzed by ultra-performance liquid chromatography (UPLC). Measurements were repeated in 0.05 M aqueous phosphate buffer and in fasted (FaSSIF) and fed (FeSSIF) simulated gastrointestinal fluids.

[5] = molecular target: T1, hCB1R; test: cell-based; settings: Table 1; mean ± SD; read-out: EC50 hCB1R (cAMP assay)
[6] = molecular target: human CB2R (Homo sapiens, UniProt P34972); test: Competition binding assay with [3H]-CP55940, HEK cell membranes; settings: for hCB2R selectivity: Ki hCB1R over Ki hCB2R
Chain of human CB2R (P34972 whole entry): as above
Method: as §3, §4

[7] = Parallel artificial membrane permeability (PAMPA) assay; format: in vitro ADME; settings: PAMPA, Table 1; read-out: PAMPA Peff
Method: The general permeability of the compound was assessed using the parallel artificial membrane permeability (PAMPA) assay and the permeability-glycoprotein (P-gp) assay was used to specifically test for brain penetration. PAMPA data were generated as previously reported by our group.[44] The P-gp assay, which evaluates the brain penetration of test compounds, was performed as described elsewhere.[45] Briefly, transfected porcine kidney epithelial (LLC-PK1) cells expressing human or mouse P-gp were cultured on 96-well semipermeable filter membrane plates (Millipore, Darmstadt, Germany). Cells formed a polarized monolayer with tight junctions that acted as a barrier between apical and basolateral compartments. P-gp was expressed in the apical-facing membrane of the monolayer (tightness confirmed using Lucifer yellow). To determine the unidirectional permeability (Papp) of RNB-61, samples were added separately to the apical (for A > B Papp) and basolateral (for B > A Papp) sides of the cell monolayer (i.e., donor compartments), and RNB-61 movement into the respective receiver compartments was measured by LC-MS/MS over a 3 h incubation at 37 °C. The effect of P-gp was measured by expressing the efflux ratio of the unidirectional A > B and B > A Papp values. The mean permeability (A > B and B > A Papp) was determined in the absence of P-gp via the addition of the selective P-gp inhibitor, tariquidar.

[8] = Solubility (Table 1); format: physicochemical; settings: thermodynamic from solid
Method: as §1

[9] = Microsomal clearance; format: in vitro ADME; settings: rat, rat microsomes, Table 1
[10] = molecular target: T2, CB2R in wild-type rat spleen membranes (Rattus norvegicus, UniProt Q9QZN9); format: binding; settings: WT rat spleen membranes
T2 construct: from tissue; host or cells: rat spleen membranes
T2 sequence (Q9QZN9 whole entry): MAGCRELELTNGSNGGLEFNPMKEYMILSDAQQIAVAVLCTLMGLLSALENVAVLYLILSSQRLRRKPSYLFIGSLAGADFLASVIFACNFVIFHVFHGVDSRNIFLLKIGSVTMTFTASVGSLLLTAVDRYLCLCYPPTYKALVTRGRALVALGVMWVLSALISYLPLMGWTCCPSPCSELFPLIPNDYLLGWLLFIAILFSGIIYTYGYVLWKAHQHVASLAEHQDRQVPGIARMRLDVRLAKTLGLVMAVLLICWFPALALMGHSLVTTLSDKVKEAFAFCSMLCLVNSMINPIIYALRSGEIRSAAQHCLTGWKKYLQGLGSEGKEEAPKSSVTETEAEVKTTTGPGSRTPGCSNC

[11] = test system: UUO-induced kidney fibrosis; test: Unilateral ureteral obstruction (UUO) model of kidney fibrosis; format: in vivo, Sprague–Dawley rats; settings: 32 mg kg^–1, day 5, time-course experiment
Method: (§2) In the ischemia/reperfusion (I/R) model of acute kidney injury (AKI),[47],[48] the compounds were administered orally by gavage to C57BL/6 mice 30 min before ischemia obtained by clamping both renal arteries and veins for 25 min, followed by 24 h of reperfusion. Mice were anesthetized using xylazine (10 mg kg^–1)/ketamine (100 mg kg^–1) injected intraperitoneally. Sham treated mice were treated identically except for the temporary closure of the renal vessels. After 24 h, under reanesthesia, plasma was taken for biomarker analysis. Thereafter, mice still in deep anesthesia were sacrificed by cervical dislocation. Creatinine, BUN (blood urea nitrogen), NGAL (neutrophil gelatinase-associated lipocalin), osteopontin, and KIM1 (kidney injury molecule-1) levels were determined using the following commercially available standard assays: creatinine: Roche Diagnostics 03263991, BUN: Roche Diagnostics 04460715, NGAL: BioPorto, Kit046 + Kit042, osteopontin: R&D Systems, MOST00, KIM-1: Abnova, KA1064. To assess fibrotic effects, we used the unilateral ureteral obstruction (UOO) model in Sprague–Dawley rats.[49] For the UOO model, rats were sacrificed after 5, 8, and 11 days and the percentage of PicroSirius Red positive areas (indicator of collagen III–I deposition) were measured in 4 μm histological cross sections of the kidney after 2% paraformaldehyde perfusion fixation and paraffin embedding. The extend of kidney fibrosis was quantified based on PicroSirius Red staining of 10 renal sections about 1 mm apart from each kidney. The collagen–III-I-positive pixel counts were determined in the cortical aspect of each kidney section from 10 optical fields using a 40× objective. As the total area analyzed was identical for all kidneys under investigation, the absolute number of pixels was used as the relevant readout. Vehicle treated animals received saline gavage only. The details of PicroSirius Red staining were previously described.[22]

[12] = test system: renal I/R-induced acute kidney injury; test: Ischemia/reperfusion (I/R) model of acute kidney injury; format: in vivo, C57BL/6 mice
Method: as §2

[13] = Table 1, mean ± SD, read-out: EC50 hCB2R (cAMP assay)

T1 sequence (P21554 whole entry): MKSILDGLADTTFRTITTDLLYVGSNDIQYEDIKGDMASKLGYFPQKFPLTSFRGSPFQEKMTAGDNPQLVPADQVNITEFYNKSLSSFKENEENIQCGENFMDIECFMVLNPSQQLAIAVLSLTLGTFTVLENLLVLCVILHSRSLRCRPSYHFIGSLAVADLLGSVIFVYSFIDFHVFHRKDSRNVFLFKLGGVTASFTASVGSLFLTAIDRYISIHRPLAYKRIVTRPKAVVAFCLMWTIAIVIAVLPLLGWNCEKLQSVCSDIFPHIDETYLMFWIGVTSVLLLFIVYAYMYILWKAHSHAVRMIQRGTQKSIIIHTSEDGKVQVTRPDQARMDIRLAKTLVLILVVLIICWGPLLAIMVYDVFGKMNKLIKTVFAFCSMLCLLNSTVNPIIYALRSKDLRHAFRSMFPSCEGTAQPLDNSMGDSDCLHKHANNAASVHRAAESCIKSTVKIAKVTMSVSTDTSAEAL

SMILES | microsomal CLint [1] [µL/min/mg] | EC50 [3, 13] [nM] | logD [4] | EC50 [5] [nM] | hCB2R selectivity [6] | Papp [7] [×10⁻⁶ cm/s] | solubility [8] [µg/mL] | microsomal CLint [9] [µL/min/mg] | also measured
COCCOCCc1cc(NC(=O)C(C)(C)S(=O)(=O)C2CCOCC2)on1 [RNB-70] | < 10 | 13 ± 2.58 | 0.8 | > 10000 | >559 | 5.9 | > 510 | – | Ki [2]: > 10000 nM
N#Cc1cc(NC(=O)CCc2nc(-c3ccc(F)cc3Cl)no2)cnc1CC(F)(F)F [RNB-73] | < 10 | 7.13 ± 2.19 | 3.86 | > 10000 | >153 | 7.4 | < 1 | < 10 | Ki [2]: > 10000 nM
CC(C)(Oc1ccc(C(F)(F)F)cn1)C(=O)Cc1cc(C(C)(C)C)no1 [RNB-90] | 15 | 0.26 ± 0.05 | 4.07 | 19.6 ± 1.18 | 307 | 2 | < 1 | 81 | –
CC1(C)C(C(=O)c2cn(CCN3CCOCC3)c3ccccc23)C1(C)C [RNB-92] | 420 | – | 3.43 | – | – | – | 2 (≈ 5.64 µM) | 730 | EC50 [3]: 0.17 ± 0.01 nM
Cc1c(C(=O)NN2CCCCC2)nn(-c2ccc(Cl)cc2Cl)c1-c1ccc(Cl)cc1 [SR1] | – | – | – | – | – | – | – | – | reduction of [3H]-RNB-61 radioactivity ([10]; competitor 1 μM): did not result in a significant difference
Cc1c(C(=O)c2cccc3ccccc23)c2cccc3c2n1[C@H](CN1CCOCC1)CO3 [WIN55,212–2] | – | – | – | – | – | – | – | – | reduction of [3H]-RNB-61 radioactivity ([10]; competitor 10 μM): significant reduction
CCOC(=O)[C@H](CCc1ccccc1)N[C@@H](C)C(=O)N1CCC[C@H]1C(=O)O [enalapril, reference compound] | – | – | – | – | – | – | – | – | collagen–III-I positive area vs vehicle [11]: No significant difference
Oc1ccc(C2CNCCc3c2cc(O)c(O)c3Cl)cc1 (centres unmarked) [fenoldopam, reference compound] | – | – | – | – | – | – | – | – | reduction of BUN compared to vehicle ([12]; 20 mg kg^–1): 39%; reduction of plasma creatinine compared to vehicle ([12]; 20 mg kg^–1): 55%
CN(C(=O)c1cc(C(F)(F)F)ccc1OCC(C)(C)O)c1cc(C(C)(C)C)nn1CC1CCC1 [regioisomer of RNB-61] | – | – | – | – | – | – | – | – | activity (data not shown) ([6]; assay not specified): inactive
CC1(C)CC(O)CC(C)(C)N1[O] [tempol, reference compound] | – | – | – | – | – | – | – | – | reduction of BUN compared to vehicle ([12]; 50 mg kg^–1): 26%; reduction of plasma KIM-1 compared to vehicle ([12]; 50 mg kg^–1): 57%; reduction of plasma NGAL compared to vehicle ([12]; 50 mg kg^–1): 43%; reduction of plasma creatinine compared to vehicle ([12]; 50 mg kg^–1): 35%; reduction of plasma osteopontin compared to vehicle ([12]; 50 mg kg^–1): 49%
